Experimental data from US7947739B2, “Tranexamic acid formulations” (Ferring B.V., priority 2004, dated 2011).
Read-outs that look alike come from different tables or passages of the source.

Columns and labels:
[1] = Example 6: single dose followed by multiple doses study, noncompartmental plasma pharmacokinetics, linearity, steady state; type: in vivo, human; settings: 1.3 g every 8 hours
Procedure: After an overnight fast, subjects received a single oral dose of tranexamic acid (1.3 g) on Day 1. Blood samples were taken before dosing and up to 36 hours post-dose. Subjects received another single oral dose of tranexamic acid (1.3 g) on the evening of Day 2, and 3 times a day (every 8 hours) starting on the morning of Day 3 until the last dose on the morning of Day 7. Blood samples were taken before the 6th, 9th, 12th and 15th dose (the last dose) for the determination of Cmin, and up to 8 hours after the last dose, for the determination of drug concentration at steady-state. Subjects were housed from at least 10 hours before the 1st dose on Day 1 until after the 8-hour blood draw following the 15th dose (on Day 7). […]
Calculations for plasma tranexamic acid were calculated by noncompartmental methods using the following pharmacokinetic parameters in Tables 15 and 16:
Descriptive statistics including arithmetic means, standard deviations and coefficients of variation were calculated on the individual concentration and pharmacokinetic data. Additionally, geometric means were calculated for the parameters AUC0-t, AUCinf, and Cmax for Day 1 and AUCτ, Cmax and Cmin for Day 7. […]
The ratio of LSM was calculated using the exponentiation of the Day LSM from the analysis on the In-transformed response. The ratio was expressed as a percentage relative to AUCinf (Day 1). […]

women with menorrhagia [2] = assay: Example 9: 6-cycle study, Menorrhagia Instrument measures, responders, sanitary products, large stains; type: in vivo, human
women with menorrhagia [3] = assay: Example 8: 3-cycle study, Menorrhagia Instrument measures (MIQ Q1-Q6), responders, sanitary products, large stains; type: in vivo, human
women with menorrhagia [4] = assay: Example 8: 3-cycle placebo-controlled study, menstrual blood loss (MBL) by alkaline hematin test, also stratified by fibroids; type: in vivo, human; settings: 3 cycles
[5] = cited from earlier work; for dose excreted unchanged in the urine: IV 1 g
women with menorrhagia [6] = assay: Example 9: 6-cycle placebo-controlled study, menstrual blood loss (MBL) by alkaline hematin test; type: in vivo, human; settings: 3.9 g/day
[7] = Example 6: compartmental pharmacokinetic analysis; type: in vivo; settings: female, human, plasma, oral, 1.3 g; 295 mL/min×0.449; read-out: systemic clearance (CL)
Procedure: Compartmental analysis was performed on tranexamic acid data following single and multiple oral administrations of the modified release (MR) tablet formulation. Multiple compartmental models were constructed and their ability to fit plasma concentrations of tranexamic acid were evaluated using a standard two-stage (STS) approach with ADAPT-II (maximum likelihood analysis). The discrimination process was performed by computing the Akaike Information Criterion Test (AIC), the minimum value of the objective function (OBJ) and by looking at pertinent graphical representations of goodness of fit (e.g. fitted and observed concentrations versus time).
The final analysis was performed using an iterative two-stage approach with the IT2S® software. This software uses a population methodology which allows one to provide robust PK parameter estimates on an individual subject and population basis. All relevant pharmacokinetic parameters were calculated and reported. Concentrations were modeled using a weighting procedure of Wj=1/Sj^2 where the variance σj^2 was calculated for each observation using the equation σj^2=(a+b*Yj)^2 where a and b are the intercept and slope of each variance model. […] The analysis included the quantitative estimation of population PK parameters and interindividual variability of tranexamic acid in plasma.

heavy menstrual bleeding = settings: cited from earlier work
[8] = Published pharmacokinetics of tranexamic acid (Pilbrant et al.; Cyklokapron NDA); type: in vivo; settings: human, serum, single 1.3 g oral dose, fasting, approx. 65% of 2 g dose published data
Procedure: By comparison, the in vivo absorption profile observed with the European immediate-release formulation is slow and very gradual over 3 hours. Specifically, tranexamic acid serum concentrations are 9, 41, 73, 88 percent (with food), and 22, 63, 85, and 98 percent (fasting) of maximal absorption at 0.5, 1, 1.5 and 2 hours after a 2 g oral dose, respectively.
Tranexamic acid is minimally bound (approximately 3%) to plasma proteins (mainly plasminogen) at “typical” therapeutic plasma concentrations of approximately 5-15 mg/L. The main route of elimination of tranexamic acid is renal glomerular filtration. After oral administration of tranexamic acid (250 or 500 mg) to healthy adults, between 40-70% of the administered dose is excreted unchanged in the urine within 24 hours. After IV administration (1 g) 30% of the dose is excreted unchanged in the urine within one hour, 45-55% within 2-3 hours and 90% within 24 hours.
For this reason, the concentration-time profile of tranexamic acid was estimated by simulating the data over 36 hours, after oral administration of a 1.3 g dose under fasting conditions, using NONMEM. Based on the simulation results, it would be appropriate to collect blood samples until 36 hours in order to characterize the AUC, Cmax, tmax, t½ and F.

[9] = 3.9 g/day compared with placebo

Q: With `NC[C@H]1CC[C@H](C(=O)O)CC1` [tranexamic acid, trans-4-(aminomethyl)cyclohexanecarboxylic acid] as the molecule, how does the “difference between the LSM of predose Day 6 and 7” value [1] read?
A: The value was “less than 2%”.

Q: And the “largest difference in predose plasma concentrations, LSM of predose Day 5 compared to Day 6 and 7” value [1]?
A: The value was “less than 10%”.

Q: What about the “LWH (MI measure #2)” value (women with menorrhagia [2]; [9]) of the same molecule?
A: The value was “significantly reduced”.

Q: What about the “subjects' assessments of MBL (MI measure #1)” value (women with menorrhagia [2]; [9]) of the same molecule?
A: Its value is “significantly reduced”.

Q: What about the “mean LPA score, change from baseline” value (women with menorrhagia [2]; 6-cycle study) of the same molecule?
A: The value was “significant treatment-related reductions”.

Q: And the “mean LSLA score, change from baseline” value (women with menorrhagia [2]; 6-cycle study)?
A: Its value is “significant treatment-related reductions”.

Q: And the “mean LPA score, change from baseline” value (women with menorrhagia [3]; 3-cycle study)?
A: The value was “Significant treatment-related reductions”.

Q: And the “mean LSLA score, change from baseline” value (women with menorrhagia [3]; 3-cycle study)?
A: The value was “Significant treatment-related reductions”.

Q: What about the “LWH (MI measure 2)” value (women with menorrhagia [3]; [9]) of the same molecule?
A: Its value is “significantly reduced”.

Q: What about the “subjects' assessments of MBL (MI item 1)” value (women with menorrhagia [3]; [9]) of the same molecule?
A: Its value is “significantly reduced”.

Q: And the proportion of responders (women with menorrhagia [3]; 3.9 g/day, first menstrual cycle, reduction in MBL and meaningful improvement (MI 6c))?
A: The proportion of responders was 71.0%.

Q: What about the “mean reduction in MBL from baseline” value (women with menorrhagia [4]; 1.95 g/day) of the same molecule?
A: Its value is 46.5 mL.

Q: And the “percent MBL reduction compared with baseline” value (“percent MBL reduction” for short) (women with menorrhagia [4]; 1.95 g/day)?
A: Its value is 26.1%.

Q: What about the “mean reduction in MBL from baseline” value (women with menorrhagia [4]; 3.9 g/day) of the same molecule?
A: Its value is 65.3 mL.

Q: And the “percent MBL reduction” value (women with menorrhagia [4]; 3.9 g/day)?
A: The value was 38.6%.

Q: And the “therapeutic antifibrinolytic range (therapeutic window)” value ([5]; Cyklokapron NDA 19-280)?
A: Its value is 5 to 15 µg/mL.

Q: What about the “dose excreted unchanged in the urine” value ([5]; within 2-3 hours) of the same molecule?
A: The value was 45-55%.

Q: And the “dose excreted unchanged in the urine” value ([5]; within 24 hours)?
A: The value was 90%.

Q: And the “dose excreted unchanged in the urine” value ([5]; within one hour)?
A: The value was 30%.

Q: And the urinary recovery ([5]; Pilbrant, et al.)?
A: Its urinary recovery is “exceeded 95 % of the dose”.

Q: What about the gamma elimination half-life ([5]; after IV administration) of the same molecule?
A: Its gamma elimination half-life is “approximately 7 hours”.

Q: And the “bound to plasma proteins” value ([5]; at therapeutic plasma concentrations of approximately 5-15 mg/L)?
A: Its value is “approximately 3%”.

Q: And the beta elimination half-life ([5]; in vivo)?
A: Its beta elimination half-life is 2 h.

Q: What about the “excreted unchanged drug in the urine” value ([5]; in vivo) of the same molecule?
A: Its value is “more than 95%”.

Q: What about the “typical therapeutic plasma concentrations” value ([5]; in vivo) of the same molecule?
A: Its value is 5 to 15 mg/L.

Q: What about the “administered dose excreted unchanged in the urine” value ([5]; oral 250 or 500 mg, healthy adults, within 24 hours) of the same molecule?
A: The value was 40-70%.

Q: What about the “mean reduction in MBL from baseline” value (women with menorrhagia [6]; […], 6-cycle study) of the same molecule?
A: Its value is 69.6 mL.

Q: What about the “percent MBL reduction” value (women with menorrhagia [6]; […], 6-cycle study) of the same molecule?
A: The value was 40.4%.

Q: And the “regression slope of response over the six menstrual cycles” value (women with menorrhagia [6]; p=0.615)?
A: The value was −0.90 mL/cycle.

Q: What about the clearance [7] of the same molecule?
A: Its clearance is 123 mL/min.

Q: And the “women satisfied with the treatment” value (heavy menstrual bleeding; Winkler open label uncontrolled usage study, 849 patients)?
A: The value was 80%.

Q: What about the “reduction of heavy menstrual bleeding” value (heavy menstrual bleeding; research from European countries) of the same molecule?
A: Its value is 40-50%.

Q: What about the AUC(0-t) ([8]; read-out: expected mean AUC0-6) of the same molecule?
A: Its AUC(0-t) is about 40000 ng·h/mL.

Q: What about the Cmax ([8]; read-out: expected mean Cmax) of the same molecule?
A: Its Cmax is about 10000 ng/mL.
